SMILES strings stand for the structures.

For the experiment, the system named is Human prostate cancer cell lines (PC-3 cells). Briefly: Measurement of cell death-inducing activity (Test Example 1). It counts as cell-based. To be noted: PC-3, 48 h, 48 hours after addition, tested at 10, 1, 0.1, 0.025 and 0.00625 μmol/L, qualitative evaluation of 10 fields, read-out: Concentration showing the cell death-inducing activity (cell death-inducing rate not less than 40%). In outline:
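PC-3 cells seeded at 1×10^5 cells/well and grown 48 h at 37 °C, 5% CO2, then exposed to compound at 10, 1, 0.1, 0.025 and 0.00625 μmol/L (DMSO control) for a further 48 h. Activity was called where cell death-inducing rate was not less than 40%.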
On to `CCn1ncc2cc(NC(=O)OCc3cc(-c4ccc(Cl)cc4OC)nn3C)ccc21` [Example 13-129], for which the minimal effective concentration was found to be 0.025 µM.

As for `CCc1nc(-c2ccc(C)cc2OC)sc1NC(=O)OCc1ccc2c(cnn2CC)c1` [Example 9-174], the minimal effective concentration was found to be 0.025 µM.

In the case of `Cc1cc(/C=N/NC(=O)c2sc(-c3ccc(Cl)cc3)nc2C(F)(F)F)cc(C)c1O` [Example 23-19], the minimal effective concentration was found to be 10 µM.

For `COc1cc(F)ccc1-c1cc(NC(=O)OCc2ccc3c(c2)nc2n3CCCC2)n(C)n1` [Example 9-265], the minimal effective concentration is 1 µM.

Turning to `CCn1nc(-c2ccccc2OC)cc1COC(=O)Nc1ccc2c(c1)nc1n2CCCC1` [Example 13-115], the minimal effective concentration was determined as 0.1 µM.

`CCn1nc(-c2ccccc2OC)cc1NC(=O)OCc1ccc2c(c1)nc1n2CCOC1` [Example 9-244]: the minimal effective concentration was 1 µM.

Take `CCc1nc(-c2ccccc2OC)sc1NC(=O)OCc1ccc2c(c1)ncn2C` [Example 9-161]: the minimal effective concentration turned out to be 0.025 µM.

For `Cc1cc(/C=N/NC(=O)c2sc(-c3ccc(Cl)cc3C)nc2C)ccc1O` [Example 23-47], the minimal effective concentration was 1 µM.

On to `COc1cc(Cl)ccc1-c1cc(NC(=O)OCc2ccc3c(c2)nc2n3CCC2)n(C)n1` [Example 9-258], for which the minimal effective concentration was determined as 0.025 µM.

In the case of `COc1cc(F)ccc1-c1cc(COC(=O)Nc2ccc3c(cnn3C)c2)n(C)n1` [Example 13-125], the minimal effective concentration came to 1 µM.

In the case of `Cc1cc(/C=N/NC(=O)c2oc(-c3ccc(Cl)cc3)nc2C)cc(C)c1O` [Example 26-1, 2-(4-Chlorophenyl)-4-methyloxazole-5-carboxylic acid[N′-(4-hydroxy-3,5-dimethylphenyl)methylidene]hydrazide], the minimal effective concentration was determined as 10 µM.

As for `COc1ccc(/C=N/NC(=O)c2cc(-c3ccccc3C)n[nH]2)cc1O` [Example 22-3], the minimal effective concentration was determined as 1 µM.

As to `Cc1nc(C)c(C(=O)N/N=C/c2cc(C)c(O)c(C)c2)s1` [Example 23-133], the minimal effective concentration was 10 µM.

Turning to `Cc1cccc(-c2nc(C)c(C(=O)N/N=C/c3ccc(OC(F)F)c(O)c3)s2)c1C` [Example 23-117], the minimal effective concentration worked out at 1 µM.

As for `CCn1nnc2cc(COC(=O)Nc3sc(-c4ccc(C)cc4C)nc3C)ccc21` [Example 9-26], the minimal effective concentration worked out at 0.025 µM.

`COc1cc(Cl)ccc1-c1nc(C)c(NC(=O)OCc2ccc3c(c2)nc2n3CCC2)s1` [Example 9-103]: the minimal effective concentration was 0.00625 µM.

For the compound `Cc1cc(Cl)ccc1-c1nc(C)c(COC(=O)Nc2ccc3c(c2)nc2n3CCSC2)s1` [Example 43-2], the minimal effective concentration came out at 0.025 µM.

For the compound `CCn1nc(-c2ccc(Cl)cc2OC)cc1COC(=O)Nc1ccc2c(c1)nc1n2CCOC1` [Example 13-100], the minimal effective concentration was found to be 0.00625 µM.

`COc1cc(C)ccc1-c1cc(NC(=O)OCc2ccc3c(c2)ncn3C)n(C)n1` [Example 9-226]: the minimal effective concentration was 0.00625 µM.

Turning to `Cc1nc(-c2ccc(F)cc2Cl)sc1NC(=O)OCc1ccc2c(c1)nnn2C` [Example 9-18], the minimal effective concentration was found to be 0.1 µM.

Take `COc1ccc(CN(C)NC(=O)c2sc(-c3ccc(F)cc3F)nc2C)cc1F` [Example 16-21]: the minimal effective concentration is 1 µM.

For the compound `CCn1nc(-c2ccc(Cl)cc2OC)cc1NC(=O)OCc1ccc2c(cnn2C)c1` [Example 9-281], the minimal effective concentration is 0.025 µM.

With `COc1cc(Cl)ccc1-c1nc(C)c(C(=O)NNCc2cc(C)c(O)c(C)c2)s1` [Example 17-3, 2-(4-Chloro-2-methoxyphenyl)-4-methylthiazole-5-carboxylic acid N′-(4-hydroxy-3,5-dimethylbenzyl)hydrazide], the minimal effective concentration is 1 µM.

Regarding `COc1cc(Cl)ccc1-c1cc(NC(=O)OCc2ccc3cnn(C)c3c2)n(C)n1` [Example 9-297], the minimal effective concentration worked out at 10 µM.

Regarding `CCn1cc2cc(COC(=O)Nc3sc(-c4ccc(OC)cc4OC)nc3C)ccc2n1` [Example 9-156], the minimal effective concentration is 0.1 µM.

On to `Cc1cc(Cl)ccc1-c1nc(C)c(COC(=O)Nc2ccc3c(c2)ncn3C)s1` [Example 13-10], for which the minimal effective concentration came to 0.00625 µM.

Consider `COc1ccccc1-c1nc(C)c(NC(=O)OCc2ccc(SC)cc2)s1` [Example 9-5], for which the minimal effective concentration is 10 µM.

`CCc1ccccc1-c1nc(C)c(NC(=O)OCc2ccc3c(c2)nc2n3CCOC2)s1` [Example 9-90]: the minimal effective concentration amounted to 0.1 µM.

For the compound `Cc1nc(-c2ccc(F)cc2Cl)sc1NC(=O)OCc1ccc2nn(C)cc2c1` [Example 9-148], the minimal effective concentration amounted to 1 µM.

On to `CCc1nc(-c2ccc(Cl)cc2OC)sc1NC(=O)OCc1ccc2c(c1)nc1n2CCC1` [Example 9-170], for which the minimal effective concentration came to 0.025 µM.

`COc1ccc(-c2nc(C)c(NC(=O)OCc3ccc4c(c3)nc3n4CCOC3)s2)c(OC)c1` [Example 9-95]: the minimal effective concentration is 0.025 µM.

`CCn1nc(-c2ccc(C)cc2OC)cc1COC(=O)Nc1ccc2c(c1)ncn2CC` [Example 13-91]: the minimal effective concentration turned out to be 0.1 µM.

For the compound `COc1ccc(CN(C)NC(=O)c2cc(-c3ccc(Cl)cc3OC)ns2)cc1` [Example 19-1, 3-(4-Chloro-2-methoxyphenyl)isothiazole-5-carboxylic acid N′-(4-methoxybenzyl)-N′-methyl hydrazide], the minimal effective concentration was 10 µM.

Consider `CCn1cnc2cc(COC(=O)Nc3sc(-c4ccc(C)cc4)nc3C)ccc21` [Example 9-55], for which the minimal effective concentration was found to be 10 µM.

As for `CCn1cnc2cc(NC(=O)OCc3cc(-c4ccc(Cl)cc4OC)ns3)ccc21` [Example 47-11], the minimal effective concentration was found to be 0.1 µM.

On to `CCn1nc(-c2ccc(C)cc2OC)cc1NC(=O)OCc1ccc2c(cnn2C)c1` [Example 9-284], for which the minimal effective concentration was found to be 0.1 µM.

Take `Cc1nc(-c2ccccc2C(F)(F)F)sc1C(=O)N/N=C/c1ccc(OC(F)F)c(O)c1` [Example 23-118]: the minimal effective concentration was 1 µM.

On to `COc1cc(C)ccc1-c1nc(C)c(NC(=O)OCc2ccc3sc(C)nc3c2)s1` [Example 37-2], for which the minimal effective concentration was found to be 1 µM.

In the case of `Cc1ccc(-c2cc(NC(=O)OCc3ccc4c(c3)nc3n4CCOC3)n(C)n2)c(C)c1` [Example 9-251], the minimal effective concentration turned out to be 0.025 µM.

As for `COc1cccc(/C=N/NC(=O)c2sc(-c3ccc(Cl)cc3OC)nc2C)c1` [Example 23-80], the minimal effective concentration is 1 µM.

Consider `COc1cc(Cl)ccc1-c1cc(COC(=O)Nc2ccc3c(c2)nc2n3CCOC2)nn1C` [Example 13-144], for which the minimal effective concentration worked out at 10 µM.

For the compound `CCn1nc(-c2ccccc2OC)cc1NC(=O)OCc1ccc2nn(C)cc2c1` [Example 9-289], the minimal effective concentration stood at 1 µM.

In the case of `COc1cc(Cl)ccc1-c1nc(C)c(C(=O)NN(C)Cc2ccc3c(c2)CCO3)s1` [Example 16-18], the minimal effective concentration was 1 µM.

On to `CCn1c(C)nc2cc(COC(=O)Nc3sc(-c4ccc(C)cc4OC)nc3C)ccc21` [Example 9-87], for which the minimal effective concentration turned out to be 0.025 µM.

In the case of `CCN(Cc1ccc(OC)cc1)NC(=O)c1cc(-c2ccc(Cl)cc2OC)n[nH]1` [Example 18-2, 5-(4-Chloro-2-methoxyphenyl)-2H-pyrazole-3-carboxylic acid N′-ethyl-N′-(4-methoxybenzyl)hydrazide], the minimal effective concentration was 1 µM.

For the origin of these results see patent US9200008B2 (ASKA PHARMACEUTICAL CO., LTD., priority 2010, dated 2015).
